Experimental data from patent US10370402B2, “Process for the preparation of fluticasone propionate form 1” (Pfizer Limited, priority 2011, dated 2019).

What was measured:
[1] = Particle size distribution of recrystallised fluticasone propionate by laser diffraction (Malvern Mastersizer 2000); type: physicochemical; conditions: for D[v, 0.1]: 10th percentile volume diameter; for D[v, 0.1] / D[v, 0.5] / D[v, 0.9]: recrystallised batch, before micronisation; for D[v, 0.5]: 50th percentile (median) volume diameter; for D[v, 0.9]: 90th percentile volume diameter; for Ingoing particle size D[v, 0.5]: before micronisation (Table 3)
Procedure: The particle size distribution was measured on the Malvern Mastersizer 2000 laser diffraction system equipped with a Hydro 2000S liquid dispersion unit and flow cell. The sample was prepared by adding 15 drops of Tween 80 to crystallised fluticasone propionate within the glass 4 dram vial and mixing into a paste using a spatula, until all of the powder is wetted out and a smooth, uniform paste is achieved. Then the paste is added to the Hydro 2000S containing dispersant (0.1% Tween 80 in deionised water) using a spatula. When the obscuration target is achieved (20%±5%) the sample is left to stir within the Hydro 2000S for 1 minute to allow the particles to wet out, disperse and ensure a stable obscuration is achieved. Measurement is initiated after 1 minute of stirring.
The particle size data expressed as D[v, 0.1], D[v, 0.5] and D[v, 0.9] obtained from examples 2-9 are summarized below in Table 2. D[v, 0.1], D[v, 0.5] and D[v, 0.9] represent the 10th percentile volume diameter; 50th percentile volume diameter; and 90th percentile volume diameter respectively. In general the n^th percentile volume diameter is defined so that n % of the particles have a volume equivalent particle diameter smaller than or equal to the n^th percentile diameter. In the case of D[v, 0.5], it coincides with the median value.

[2] = Particle size distribution of micronised fluticasone propionate by laser diffraction (Sympatec HELOS); type: physicochemical; conditions: after jet milling, JetPharma MC150, feed 15 g/min, mill pressure 3.5 bar, venturi 5.5 bar
Procedure: The particle size distribution was measured on the Sympatec HELOS laser diffraction system (with R1 optical module giving a measuring range of 0.1/0.18-35 μm) together with SUCELL dispersing module. 100 mg of micronised sample is weighed into a 4-dram vial and 15 drops (approximately 0.5 mL) of Tween 80 is added from a 3 ml wide-tipped pipette to the powder. The mixture is then carefully stirred into a paste until all the particles are wetted out and a uniform smooth mixture is achieved. Then the paste is added to the SUCELL containing dispersant (0.025% Tween 80 in deionised water) using a spatula. Once the optical concentration target is achieved (10-15%) then a measurement is taken.
Particles were micronized using a JetPharma MC150 (6 inch spiral jet mill) using the following conditions: • Feed rate: 15 g/min • Mill pressure: 3.5 bar • Venturi Pressure: 5.5 bar • Micronisation scale: 0.5 Kg.

Compound | D[v, 0.1] [1] [μm] | D[v, 0.5] [1] [μm] | D[v, 0.9] [1] [μm] | Post-micronisation particle size D[v, 0.5] [2] [μm] | Ingoing particle size D[v, 0.5] [1] [μm]
CCC(=O)O[C@]1(C(=O)SCF)[C@H](C)C[C@H]2[C@@H]3C[C@H](F)C4=CC(=O)C=C[C@]4(C)[C@@]3(F)[C@@H](O)C[C@@]21C [Example 3, S-(fluoromethyl)-6α,9-difluoro-11β-17-dihydroxy-16α-methyl-3-oxoandrosta-1,4-diene-17β-carbothioate, 17-propionate] | 2.1 | 5.1 | 11.357 |  | 
CCC(=O)O[C@]1(C(=O)SCF)[C@H](C)C[C@H]2[C@@H]3C[C@H](F)C4=CC(=O)C=C[C@]4(C)[C@@]3(F)[C@@H](O)C[C@@]21C [Example 4, S-(fluoromethyl)-6α,9-difluoro-11β-17-dihydroxy-16α-methyl-3-oxoandrosta-1,4-diene-17β-carbothioate, 17-propionate] | 15.4 | 55.1 | 135.9 |  | 
CCC(=O)O[C@]1(C(=O)SCF)[C@H](C)C[C@H]2[C@@H]3C[C@H](F)C4=CC(=O)C=C[C@]4(C)[C@@]3(F)[C@@H](O)C[C@@]21C [Example 6, S-(fluoromethyl)-6α,9-difluoro-11β-17-dihydroxy-16α-methyl-3-oxoandrosta-1,4-diene-17β-carbothioate, 17-propionate] | 2.0 | 5.3 | 12.4 |  | 
CCC(=O)O[C@]1(C(=O)SCF)[C@H](C)C[C@H]2[C@@H]3C[C@H](F)C4=CC(=O)C=C[C@]4(C)[C@@]3(F)[C@@H](O)C[C@@]21C [Example 5, S-(fluoromethyl)-6α,9-difluoro-11β-17-dihydroxy-16α-methyl-3-oxoandrosta-1,4-diene-17β-carbothioate, 17-propionate] | 2.1 | 5.9 | 15.2 |  | 
CCC(=O)O[C@]1(C(=O)SCF)[C@H](C)C[C@H]2[C@@H]3C[C@H](F)C4=CC(=O)C=C[C@]4(C)[C@@]3(F)[C@@H](O)C[C@@]21C [Example 2, S-(fluoromethyl)-6α,9-difluoro-11β-17-dihydroxy-16α-methyl-3-oxoandrosta-1,4-diene-17β-carbothioate, 17-propionate] | 2.5 | 6.7 | 15.7 |  | 

Next, values leading:

D[v, 0.1] [1] [μm] | D[v, 0.5] [1] [μm] | D[v, 0.9] [1] [μm] | Post-micronisation particle size D[v, 0.5] [2] [μm] | Ingoing particle size D[v, 0.5] [1] [μm] | Compound
3.4 | 11.4 | 32.1 |  |  | CCC(=O)O[C@]1(C(=O)SCF)[C@H](C)C[C@H]2[C@@H]3C[C@H](F)C4=CC(=O)C=C[C@]4(C)[C@@]3(F)[C@@H](O)C[C@@]21C [Example 7, S-(fluoromethyl)-6α,9-difluoro-11β-17-dihydroxy-16α-25 methyl-3-oxoandrosta-1,4-diene-17β-carbothioate, 17-propionate]
1.3 | 2.8 | 5.6 | 2.3 | 2.8 | CCC(=O)O[C@]1(C(=O)SCF)[C@H](C)C[C@H]2[C@@H]3C[C@H](F)C4=CC(=O)C=C[C@]4(C)[C@@]3(F)[C@@H](O)C[C@@]21C [Example 8, S-(fluoromethyl)-6α,9-difluoro-11β-17-dihydroxy-16α-methyl-3-oxoandrosta-1,4-diene-17β-carbothioate, 17-propionate]
6.2 | 22.5 | 53.4 | 4.0 | 22.5 | CCC(=O)O[C@]1(C(=O)SCF)[C@H](C)C[C@H]2[C@@H]3C[C@H](F)C4=CC(=O)C=C[C@]4(C)[C@@]3(F)[C@@H](O)C[C@@]21C [Example 9, S-(fluoromethyl)-6α,9-difluoro-11β-17-dihydroxy-16α-methyl-3-oxoandrosta-1,4-diene-17β-carbothioate, 17-propionate]
